In patent publication US4668621A, “Detecting blood clotting factors with immobilized fibrinogen and labeled fibrinogen” (Wake Forest University, priority 1985, dated 1987):

Columns and labels:
thrombin = biological target: T1, thrombin (Homo sapiens, UniProt P00734); experiment: Inhibition of thrombin in the solid-phase thrombin assay; type: biochemical; details: 80 min assay
T1 construct: additional factors necessary for cleavage of prothrombin to thrombin
Procedure: (§1) In the first assay, microtiter plates were coated with 150 μl per well of 50 μg/ml of fibrinogen in 10 mM Tris-acetate buffered saline, pH 7.6 (TABS) containing 10 mM EDTA overnight at 4° C. The solution was removed from the plate, and 100 μl of a 10 μg/ml solution of peroxidase-fibrinogen in 3.8 mg/ml bovine serum albumin (BSA) in TABS containing 10 mM calcium chloride was added to the well. 50 μl of thrombin diluted from 0.1 to 0.00078 NIH units/ml (30-0.25 ng/ml) was added to each well for various times from 0-160 min, after which the solution was washed from the plate. Peroxidase assay was performed using ortho-phenylenediamine as the indicator dye, with 11 min of incubation.
In the next assay, benzamidine and D-phenylalanyl-L-prolyl-L-arginine chloromethyl ketone (PPACK) were added to thrombin at the start of the assay. […] The percent inhibition can be calculated from the increased thrombin concentration required to obtain equivalent activity, as
% inhibition=100 * (1-To/Ti)
where To is the thrombin concentration yielding an O.D.=1 in the absence of inhibitor, and Ti is the thrombin concentration yielding an O.D.=1 in the presence of a given inhibitor concentration.

fibrinogen = experiment: Thrombin assay: peroxidase-fibrinogen bound to fibrinogen-coated microtiter plate; type: biochemical, human; details: for [Thrombin] for O.D. = 1: unit not printed here (preceding table: NIH units/ml)
Procedure: This was prepared by the method of Nakane and Kawaoi (J. Histochem. Cytochem (1974) 22:1084) using 40 mg of horseradish peroxidase and 300 mg of human fibrinogen. The molar ratio of peroxidase to fibrinogen in the final product was 0.39. This was diluted with unlabeled fibrinogen to a concentration of 0.72 mg/ml of fibrinogen with a molar ratio of 0.12 moles of peroxidase per mole of fibrinogen, stored in 50% glycerol at -20° C.
as §1, with “incubation. Optical density was measured at 490 nm using a microtiter plate reader, with the following results:” for “incubation.”
Not only the endpoint (O.D.>2), but also the partial reaction ([…])can be used as a measure of thrombin activity. The penultimate value prior to the endpoint, or an approximate extrapolation to the concentration of thrombin yielding an O.D. value of 1 can be used to standardize this assay. For the above experiment, this value is reached at thrombin concentrations of: […]

## N=C(N)c1ccccc1 [Benzamidine, benzamidine]
thrombin; [Benzamidine] 0.5 mM
  % Inhibition: 8%
thrombin; [Benzamidine] 1 mM
  % Inhibition: 41%
thrombin; [Benzamidine] 2 mM
  % Inhibition: 55%
thrombin; [Benzamidine] 5 mM
  % Inhibition: 75%
thrombin; [Benzamidine] 10 mM
  % Inhibition: 84%
thrombin; [Benzamidine] 20 mM
  % Inhibition: 97%

## N=C(N)NCCC[C@H](NC(=O)[C@@H]1CCCN1C(=O)[C@H](N)Cc1ccccc1)C(=O)CCl [PPACK, D-phenylalanyl-L-prolyl-L-arginine chloromethyl ketone]
thrombin; [PPACK] .005 nM
  % Inhibition: 11%
thrombin; [PPACK] .01 nM
  % Inhibition: 19%
thrombin; [PPACK] .02 nM
  % Inhibition: 43%
thrombin; [PPACK] .05 nM
  % Inhibition: 62%
thrombin; [PPACK] .1 nM
  % Inhibition: 79%
thrombin; [PPACK] .2 nM
  % Inhibition: 83%
thrombin; [PPACK] .5 nM
  % Inhibition: 95%

## Thrombin
fibrinogen; incubation time 10 min
  [Thrombin] for O.D. = 1: > 0.03
fibrinogen; incubation time 20 min
  [Thrombin] for O.D. = 1: 0.02
fibrinogen; incubation time 40 min
  [Thrombin] for O.D. = 1: 0.005
fibrinogen; incubation time 80 min
  [Thrombin] for O.D. = 1: 0.002
fibrinogen; incubation time 160 min
  [Thrombin] for O.D. = 1: 0.0008
fibrinogen; thrombin .00026 NIH units/ml, incubation 0 min
  Optical density at 490 nm: 0.20
fibrinogen; thrombin .00026 NIH units/ml, incubation 10 min
  Optical density at 490 nm: 0.24
fibrinogen; thrombin .00026 NIH units/ml, incubation 20 min
  Optical density at 490 nm: 0.19
fibrinogen; thrombin .00026 NIH units/ml, incubation 40 min
  Optical density at 490 nm: 0.25
fibrinogen; thrombin .00026 NIH units/ml, incubation 80 min
  Optical density at 490 nm: 0.32
fibrinogen; thrombin .00026 NIH units/ml, incubation 160 min
  Optical density at 490 nm: 0.24
fibrinogen; thrombin .0005 NIH units/ml, incubation 0 min
  Optical density at 490 nm: 0.21
fibrinogen; thrombin .0005 NIH units/ml, incubation 10 min
  Optical density at 490 nm: 0.21
fibrinogen; thrombin .0005 NIH units/ml, incubation 20 min
  Optical density at 490 nm: 0.16
fibrinogen; thrombin .0005 NIH units/ml, incubation 40 min
  Optical density at 490 nm: 0.14
fibrinogen; thrombin .0005 NIH units/ml, incubation 80 min
  Optical density at 490 nm: 0.18
fibrinogen; thrombin .0005 NIH units/ml, incubation 160 min
  Optical density at 490 nm: 0.60
fibrinogen; thrombin .0010 NIH units/ml, incubation 0 min
  Optical density at 490 nm: 0.22
fibrinogen; thrombin .0010 NIH units/ml, incubation 10 min
  Optical density at 490 nm: 0.15
fibrinogen; thrombin .0010 NIH units/ml, incubation 20 min
  Optical density at 490 nm: 0.18
fibrinogen; thrombin .0010 NIH units/ml, incubation 40 min
  Optical density at 490 nm: 0.23
fibrinogen; thrombin .0010 NIH units/ml, incubation 80 min
  Optical density at 490 nm: 0.37
fibrinogen; thrombin .0010 NIH units/ml, incubation 160 min
  Optical density at 490 nm: 1.55
fibrinogen; thrombin .0021 NIH units/ml, incubation 0 min
  Optical density at 490 nm: 0.25
fibrinogen; thrombin .0021 NIH units/ml, incubation 10 min
  Optical density at 490 nm: 0.18
fibrinogen; thrombin .0021 NIH units/ml, incubation 20 min
  Optical density at 490 nm: 0.18
fibrinogen; thrombin .0021 NIH units/ml, incubation 40 min
  Optical density at 490 nm: 0.18
fibrinogen; thrombin .0021 NIH units/ml, incubation 80 min
  Optical density at 490 nm: 1.02
fibrinogen; thrombin .0021 NIH units/ml, incubation 160 min
  Optical density at 490 nm: > 2
fibrinogen; thrombin .0042 NIH units/ml, incubation 0 min
  Optical density at 490 nm: 0.23
fibrinogen; thrombin .0042 NIH units/ml, incubation 10 min
  Optical density at 490 nm: 0.22
fibrinogen; thrombin .0042 NIH units/ml, incubation 20 min
  Optical density at 490 nm: 0.26
fibrinogen; thrombin .0042 NIH units/ml, incubation 40 min
  Optical density at 490 nm: 0.87
fibrinogen; thrombin .0042 NIH units/ml, incubation 80 min
  Optical density at 490 nm: > 2
fibrinogen; thrombin .0042 NIH units/ml, incubation 160 min
  Optical density at 490 nm: > 2
fibrinogen; thrombin .0083 NIH units/ml, incubation 0 min
  Optical density at 490 nm: 0.30
fibrinogen; thrombin .0083 NIH units/ml, incubation 10 min
  Optical density at 490 nm: 0.42
fibrinogen; thrombin .0083 NIH units/ml, incubation 20 min
  Optical density at 490 nm: 0.40
fibrinogen; thrombin .0083 NIH units/ml, incubation 40 min
  Optical density at 490 nm: 1.67
fibrinogen; thrombin .0083 NIH units/ml, incubation 80 min
  Optical density at 490 nm: > 2
fibrinogen; thrombin .0083 NIH units/ml, incubation 160 min
  Optical density at 490 nm: > 2
fibrinogen; thrombin .017 NIH units/ml, incubation 0 min
  Optical density at 490 nm: 0.31
fibrinogen; thrombin .017 NIH units/ml, incubation 10 min
  Optical density at 490 nm: 0.30
fibrinogen; thrombin .017 NIH units/ml, incubation 20 min
  Optical density at 490 nm: 0.91
fibrinogen; thrombin .017 NIH units/ml, incubation 40 min
  Optical density at 490 nm: > 2
fibrinogen; thrombin .017 NIH units/ml, incubation 80 min
  Optical density at 490 nm: > 2
fibrinogen; thrombin .017 NIH units/ml, incubation 160 min
  Optical density at 490 nm: > 2
fibrinogen; thrombin .033 NIH units/ml, incubation 0 min
  Optical density at 490 nm: 0.41
fibrinogen; thrombin .033 NIH units/ml, incubation 10 min
  Optical density at 490 nm: 0.52
fibrinogen; thrombin .033 NIH units/ml, incubation 20 min
  Optical density at 490 nm: 1.24
fibrinogen; thrombin .033 NIH units/ml, incubation 40 min
  Optical density at 490 nm: > 2
fibrinogen; thrombin .033 NIH units/ml, incubation 80 min
  Optical density at 490 nm: > 2
fibrinogen; thrombin .033 NIH units/ml, incubation 160 min
  Optical density at 490 nm: > 2
